Values of other authors as cited in publication PMC6832551, “An Antiviral Peptide from Alopecosa nagpag Spider Targets NS2B–NS3 Protease of Flaviviruses” (Toxins, 2019).
Structures can show the parent of a compound that is named as a salt.

System: ZIKV
From the text: Despite their differences in pathogeneses, DENV and ZIKV are representative, emerging mosquito-borne flaviviruses with similar replication cycles which infect millions of people annually. The non-structural proteins of flaviviruses are important for virus replication and assembly. It has been established that NS2B–NS3 forms the viral protease and NS3 alone serves as the dsRNA helicase. Recently, the NS2B–NS3 protease became an attractive antiviral target, and many of its inhibitors have been reported as potential antivirals. Protease inhibitors are ubiquito ...

## CC(C)C[C@H]1C(=O)N2CCC[C@H]2[C@]2(O)O[C@](NC(=O)[C@@H]3C=C4c5cccc6[nH]c(Br)c(c56)C[C@H]4N(C)C3)(C(C)C)C(=O)N12 [bromocriptine, Bromocriptine mesylate]
  ZIKV viral replication (in words): confirmed to inhibit ZIKV protease activity and viral replication
